The record followed here is patent US20240131028A1, “CHEMOVACCINATION AGAINST PLASMODIUM INFECTION WITH SELECTIVE PLASMEPSIN X INHIBITORS” (Merck Sharp & Dohme LLC, priority 2021, published 2024).

In assay [1] the test system is Plasmodium berghei sporozoites (PbmCherryLuci). In words: Chemovaccination of mice: sporozoite liver infection, oral treatment, mosquito bite challenge. It is filed as in vivo, Plasmodium berghei in C57BL/6 mice. The procedure: The indicated number of Plasmodium berghei sporozoites expressing mCherry and luciferase reporters (PbmCherryLuci) were inoculated intravenously, and compounds were administered to mice by oral gavage 36 and 48 hours after injection during liver infection. Plasmodium berghei liver infection levels and egress of parasites from the liver were measured by bioluminescence signal from the parasites using the luciferase reporter and an In Vivo Imaging System (IVIS, Perkin Elmer) at the peak of liver infection (52 hours post infection, hpi), during liver egress (55 hpi) as well as during the first round of blood infection (65 hpi). Initiation of blood infection was also measured by flow cytometry at 65 hpi using the mCherry reporter to determine the parasitemia of this first round of blood infection. These analyses allowed quantification of the efficacy of drug killing of parasites in the liver (52 hpi), preventing their egress from the liver (55 hpi) or preventing their successful infection of the blood (65 hpi). Mice were monitored by giemsa stained thin blood smears for the presence of parasites in the blood for 30 days post infection. If no blood infection was seen during the subsequent 30 days, the mice were declared cured of malaria infection thus indicating the chemoprophylactic activity of these compounds.
The chemoprophylactic activity of administered compounds is not to kill liver Plasmodium berghei parasites nor to prevent their egress from the liver, but rather that liver-derived merozoites were unable to initiate a blood infection in these mice. The parasites are thus attenuated by the administered compounds. Such parasite attenuation by genetic means is a powerful vaccination strategy, and as such cure of liver parasites by the compounds could simultaneously be considered as chemoprophylaxis as well as a chemovaccination strategy. Mice previously cured of liver infection with the administered compounds (Chemovaccinated) were challenged with bites from 10 PbmCherryLuci infected mosquitoes at the indicated times after cure of liver infection with the administered compounds to determine the level of immunity engendered by this chemovaccination approach.
C57BL/6 mice were administered Example 2, as described in the general procedure. Thirty nine mice were infected with 40,000 sporozoites. Twenty-one mice were untreated. Six C57BL/6 mice were administered 2×100 mg/kg of Example 2. Six C57BL/6 mice were administered 2×200 mg/kg. Six C57BL/6 mice were administered 2×500 mg/kg. Example 2 dosed at 2×100 mg/kg cured four of six mice of their infection, as did mice dosed with 2×200 mg/kg of Example 2. […] These infections and treatments can be considered immunizations or chemovaccinations, since the parasite is attenuated by Example 2 and is unable to initiate the blood infection.
Additionally, the eight mice previously chemovaccinated with 2×100 mg/kg and 2×200 mg/kg of Example 2 were challenged three months later with bites from 10 mosquitoes infected with PbmCherryLuci sporozoites.

Assay [2] concerns ring stage parasites (Pf). In words: Parasite lactate dehydrogenase (LDH) growth assay (Parasite Assay, PfLDH Assay). It is filed as cell-based, P. falciparum.
Assay [3] deals with PfPMX (recombinant plasmepsin X) (Plasmodium falciparum, UniProt Q8IAS0). In words: FRET based assay for plasmepsin X cleavage of Rh2 peptide substrate. It is filed as biochemical. To be noted: AVG, N=2, pH 5.5. Here is the method:
(§1) For cleavage assays, 10-point dilution series of the compounds (Compound EC50 determined by LDH assay) were prepared in 1536 well black low volume assay plates (Corning #3728) using an Acoustic Dispenser Echo555 (Labcyte). Appropriate volumes of 10 mM compound stocks were transferred into the assay plates starting at a top dose of 0.9 μM for PfPMX and 90 μM for PfPMIX in a 1:3 fold dilution series with 1% DMSO final concentration. IC50 values were analysed in Graphpad Prism software using a nonlinear regression four-parameter fit analysis. The equation used was sigmoidal dose response (variable slope), Y=bottom+[…].
(§2) All compound potency assays were conducted in 5 μl total volume. […] Samples were excited at 340 nm and fluorescence emission measured at 490 nm using PHERAstar FSX plate reader (BMG). […]
(§3) For cleavage assays, 10-point dilution series of the compounds, recombinant PMIX or PMX, and FRET peptide substrates were prepared in 1536 well plates. Samples were excited at 340 nm and fluorescence emission measured at 492 nm using an Envision fluorescence plate reader (Perkin-Elmer).
(§4) IC50 values were calculated by Dotmatics 5.3 and Spotfire 7.11.1 software using a nonlinear regression four-parameter fit analysis. […]

The target in assay [4] is T1, PfPMIX (recombinant plasmepsin IX) (Plasmodium falciparum, UniProt Q8ILG2).
T1 sequence (Q8ILG2 1-627): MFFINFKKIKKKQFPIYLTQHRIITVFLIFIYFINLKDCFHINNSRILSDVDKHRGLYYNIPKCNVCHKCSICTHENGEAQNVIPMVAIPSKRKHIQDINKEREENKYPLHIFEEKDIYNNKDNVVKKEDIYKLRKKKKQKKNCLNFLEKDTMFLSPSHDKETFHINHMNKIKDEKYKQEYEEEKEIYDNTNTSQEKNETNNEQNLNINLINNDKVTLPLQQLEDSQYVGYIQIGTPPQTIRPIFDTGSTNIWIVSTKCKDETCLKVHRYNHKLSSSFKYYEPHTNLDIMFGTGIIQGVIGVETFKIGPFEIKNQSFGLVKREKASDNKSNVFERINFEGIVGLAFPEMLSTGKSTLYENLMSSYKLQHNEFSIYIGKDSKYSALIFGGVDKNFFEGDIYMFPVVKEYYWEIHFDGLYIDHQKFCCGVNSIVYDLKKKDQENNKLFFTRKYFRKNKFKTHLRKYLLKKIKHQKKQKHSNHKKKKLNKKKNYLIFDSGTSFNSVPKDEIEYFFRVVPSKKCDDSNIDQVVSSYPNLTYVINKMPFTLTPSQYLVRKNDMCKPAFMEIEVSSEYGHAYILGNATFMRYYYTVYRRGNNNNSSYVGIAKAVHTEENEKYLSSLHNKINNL
Put plainly: FRET based assay for plasmepsin IX cleavage of RON3 peptide substrate. It is filed as biochemical. Conditions: AVG, N=2, pH 5.5. Here is the method:
as §1, §2, §3, §4

Where [5] appears, read: eight mice chemovaccinated once with 2×100 or 2×200 mg/kg, challenged three months later, bites from 10 infected mosquitoes.
[6] abbreviates: Plasmodium falciparum, 72 h, Table 4, 72 hours growth, LDH readout, read-out: EC50 (Table 4).
[7] abbreviates: Table 4, 72 hours growth, LDH readout, read-out: EC50 (Table 4).

Entries after “also recorded” stand apart in the source; their conditions may differ. Read-outs that look alike come from different tables or passages of the source.

Sequence of PfPMX (recombinant plasmepsin X) (Q8IAS0 222-573): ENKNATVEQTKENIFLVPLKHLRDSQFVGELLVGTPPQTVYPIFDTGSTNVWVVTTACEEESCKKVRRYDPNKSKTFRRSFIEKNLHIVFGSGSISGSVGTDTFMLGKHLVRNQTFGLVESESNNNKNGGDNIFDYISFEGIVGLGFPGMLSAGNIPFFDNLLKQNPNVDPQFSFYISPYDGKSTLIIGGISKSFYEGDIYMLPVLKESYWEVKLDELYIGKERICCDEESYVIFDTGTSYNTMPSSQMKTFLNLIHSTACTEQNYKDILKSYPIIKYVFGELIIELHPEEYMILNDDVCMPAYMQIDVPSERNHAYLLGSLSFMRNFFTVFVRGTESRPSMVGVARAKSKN

Regarding `CCC1(CC)CC(=O)N([C@H](c2cccnc2)[C@H]2C[C@@H]2C(=O)N[C@H]2CC(C)(C)Oc3ccccc32)C(=N)N1` [Example 2, (1S,2S)-2-((S)-(4,4-diethyl-2-imino-6-oxotetrahydropyrimidin-1(2H)-yl)(pyridin-3-yl)methyl)-N—((S)-2,2-dimethylchroman-4-yl)cyclopropanecarboxamide], the “mice cured of their infection” value in assay [1] (2×100 mg/kg oral gavage 36 and 48 h after 40,000 sporozoites i.v., 30 days monitoring) was “four of six”; in assay [1] (2×200 mg/kg oral gavage 36 and 48 h after 40,000 sporozoites i.v., 30 days monitoring) it was “four of six”. Moreover, the “mice cured of their infection (chemoprophylaxis)” value in assay [1] (2×500 mg/kg oral gavage 36 and 48 h after 40,000 sporozoites i.v., 30 days monitoring, FIG. 1) is reported as “cured all mice of their infection; also recorded: never got malaria”. Besides, in assay [1] (2×500 mg/kg twice, challenged 3 months later, bites from 10 infected mosquitoes, FIG. 2), the “protection from infection upon mosquito bite challenge after two immunizations” value is given as “completely protected from infection”. Moreover, the “protection after two immunizations” value in assay [1] (2×500 mg/kg twice, mosquito bite challenge 3 months later, FIG. 2) was found to be 100%. In assay [1] (setting [5]), the “development of malaria disease after challenge, one immunization” value is on record as “all mice ultimately developed malaria disease”. The “infection upon mosquito bite challenge after one immunization” value in assay [1] (setting [5]) is on record as “showed a reduction in infection upon challenge”. Besides, the “cure of second infection (boost immunization)” value in assay [1] (six mice, six weeks later 20,000 sporozoites, 2×500 mg/kg) is “cured them of this second infection”. The EC50 in assay [2] (Plasmodium falciparum, 72 h, Table 3, 72 hours growth, LDH readout, read-out: EC50) came out at 0.9 nM; in assay [2] (Plasmodium falciparum, Table 6, AVG, N=3, read-out: PfLDH Assay (EC50)), 0.86 nM. Also, the Ki in assay [3] worked out at 0.026 nM; in assay [4] it was 5.95 nM.
`CC1(C)CC(=O)N(C[C@H]2C[C@@H]2C(=O)N[C@H]2CC(C3CC3)Oc3ccccc32)C(=N)N1` (stereo partly shown) [Example 140B]: the EC50 in assay [2] (Table 3, 72 hours growth, LDH readout, read-out: EC50) turned out to be 280 nM.
For `CCC1(CC)CC(=O)N([C@H](CCOC)[C@H]2C[C@@H]2C(=O)N[C@@H]2CC(C)(C)Oc3ccccc32)C(=N)N1` [Example 141], the EC50 in assay [2] (setting [6]) came out at 4.7 nM.
Consider `CCC1(CC)CC(=O)N([C@H](CCOC)[C@H]2C[C@@H]2C(=O)N[C@H]2c3ccccc3OC(C)(C)[C@@H]2O)C(=N)N1` [Example 144], for which the EC50 in assay [2] (setting [6]) was determined as 165 nM.
Same read-out and setting: for `CCC1(CC)CC(=O)N([C@H](CCOC)[C@H]2C[C@@H]2C(=O)N[C@@H]2c3ccccc3OC(C)(C)[C@H]2O)C(=N)N1` [Example 145] the value was 8.4 nM; for `CCC1(CC)CC(=O)N([C@H](CCOC)[C@H]2C[C@@H]2C(=O)N[C@H]2CC(C)(C)Oc3ccc(Cl)cc32)C(=N)N1` [Example 146], 1.1 nM.
As to `CCC1(CC)CC(=O)N([C@H](CCOC)[C@H]2C[C@@H]2C(=O)NC2CC(C)(C)Oc3c(Cl)cccc32)C(=N)N1` (stereo partly shown) [Example 148A], the EC50 in assay [2] (setting [6]) stood at 2.7 nM.
Take `CCC1(CC)CC(=O)N([C@H](CCOC)[C@H]2C[C@@H]2C(=O)NC2CC(C)(C)Oc3c(Cl)cccc32)C(=N)N1` (stereo partly shown) [Example 148B]: the EC50 in assay [2] (setting [7]) was found to be 1.9 nM.
Consider `CCC1(CC)CC(=O)N([C@H](CCOC)[C@H]2C[C@@H]2C(=O)NC2CC(C)(C)Oc3cccc(Cl)c32)C(=N)N1` (stereo partly shown) [Example 149A], for which the 50% effective concentration (EC50) in assay [2] (setting [6]) came to 1 nM.
As for `CCC1(CC)CC(=O)N([C@H](CCOC)[C@H]2C[C@@H]2C(=O)NC2CC(C)(C)Oc3cccc(Cl)c32)C(=N)N1` (stereo partly shown) [Example 149B], the EC50 in assay [2] (setting [7]) amounted to 1.2 nM.
As to `CCC1(CC)CC(=O)N([C@H](CCOC)[C@H]2C[C@@H]2C(=O)NC2c3cc(Cl)ccc3OC(C)(C)[C@H]2O)C(=N)N1` (stereo partly shown) [Example 150], the EC50 in assay [2] (setting [6]) turned out to be 3.9 nM.
